Reference: patent US6346533B1, “Intraconazole exhibiting an improved solubility, a method of preparing the same and a pharmaceutical composition for oral administration comprising the same” (Dong-A Pharmaceutical Co., Ltd., priority 1997, dated 2002)
≈ marks a conversion by molar mass, not a printed value.

Tests used:
[1] = cited from earlier work
[2] = n-octanol and aqueous buffer solution of pH 8.1; cited from earlier work
[3] = Determination of solubility in artificial gastric juice; assay type: physicochemical; details: 2 hours; for Solubility: artificial gastric juice, 37° C., pH 1.2
Description: Excess of itraconazole from Example 1 and conventional itraconazole prepared without dissolution-induced drying were added to artificial gastric juice of pH 1.2 and shaken at 37° C. for 2 hours, respectively. Each of the mixture were filtered through a membrane filter with pore diameter of […] and each of the filtrate was subjected to high-performance liquid chromatography, thereby obtaining gastric juice solubility.

Solubility relative to itraconazole without dissolution-induced drying ([3]; artificial gastric juice pH 1.2, 37° C.) | Solubility [3] | Compound | Solubility in water [1] | log partition coefficient [2]
– | – | CCC(C)n1ncn(-c2ccc(N3CCN(c4ccc(OCC5COC(Cn6cncn6)(c6ccc(Cl)cc6Cl)O5)cc4)CC3)cc2)c1=O (racemic) [Itraconazole, itraconazole] | less than 1 μg/ml | 5.66
62 times | 218.6 µg/mL (≈ 310 µM) | CCC(C)n1ncn(-c2ccc(N3CCN(c4ccc(OCC5COC(Cn6cncn6)(c6ccc(Cl)cc6Cl)O5)cc4)CC3)cc2)c1=O (centres unmarked) [Itraconazole of Example 1, itraconazole] | – | –
– | 3.5 µg/mL (≈ 4.96 µM) | CCC(C)n1ncn(-c2ccc(N3CCN(c4ccc(OCC5COC(Cn6cncn6)(c6ccc(Cl)cc6Cl)O5)cc4)CC3)cc2)c1=O (centres unmarked) [The conventional itraconazole without dissolution-induced dr] | – | –
